Strand notation (5' to 3'): a small letter for the sugar, then the base; units joined by * are phosphorothioate-linked, units joined directly phosphodiester-linked; [ ] holds rarer units or linkages, { } end groups; capitals alone tell only the bases. e = 2'-O-(2-methoxyethyl) (MOE); k = constrained ethyl (cEt); [5mC] = 5-methylcytosine; d = 2'-deoxy (DNA)
Test system: human PKK mRNA
Assay: Antisense inhibition of human PKK mRNA in HepaRG cells, 1,000 nM, MOE/deoxy/cEt oligonucleotides (Example 3)
Assay type: cell-based
Summary of the method: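 Readout is percent PKK mRNA reduction against untreated controls, by real-time PCR (RTS3454) adjusted for total RNA via RIBOGREEN. Oligonucleotides, phosphorothioate gapmers of 16 nucleosides with cEt, MOE and deoxy sugars, were delivered at 1,000 nM by electroporation to 20,000 HepaRG cells/well for roughly 24 h.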

[1] = Table 28, HepaRG cells, 1,000 nM antisense oligonucleotide, human PKK mRNA
[2] = HepaRG cells, 1,000 nM antisense oligonucleotide, Table 29
[3] = HepaRG cells, electroporation with 1,000 nM antisense oligonucleotide, approx. 24 hours, PKK mRNA by RT-PCR (RTS3454), relative to untreated control cells, Table 26 experiment
[4] = Table 21 experiment, HepaRG cells, electroporation with 1,000 nM antisense oligonucleotide, approx. 24 hours, PKK mRNA by RT-PCR (RTS3454), relative to untreated control cells
[5] = Table 30, human PKK mRNA, HepaRG cells, 1,000 nM antisense oligonucleotide
[6] = HepaRG cells, electroporation with 1,000 nM antisense oligonucleotide, approximately 24 hours, primer probe set RTS3454, relative to untreated control cells, experiment of Table 23
[7] = PKK mRNA, HepaRG cells, 1,000 nM antisense oligonucleotide, Table 31
[8] = Table 19, HepaRG cells, electroporation with 1,000 nM antisense oligonucleotide, approximately 24 hours, PKK mRNA by RT-PCR (RTS3454), relative to untreated control cells
[9] = Table 20, HepaRG cells, electroporation with 1,000 nM antisense oligonucleotide, approximately 24 hours, PKK mRNA by RT-PCR (RTS3454), relative to untreated control cells
[10] = Table 22 experiment, HepaRG cells, electroporation with 1,000 nM antisense oligonucleotide, approx. 24 hours, PKK mRNA by RT-PCR (RTS3454), relative to untreated control cells
[11] = HepaRG cells, electroporation with 1,000 nM antisense oligonucleotide, approx. 24 hours, PKK mRNA by RT-PCR (RTS3454), relative to untreated control cells, Table 25 experiment
[12] = Table 27, HepaRG cells, 1,000 nM antisense oligonucleotide, human PKK mRNA
[13] = HepaRG cells, electroporation with 1,000 nM antisense oligonucleotide, approximately 24 hours, primer probe set RTS3454, relative to untreated control cells, experiment of Table 24

548464 (eG*eT*k[5mC]*d[5mC]*dT*dA*dT*dA*dA*d[5mC]*dT*dA*dT*kA*kT*e[5mC]; antisense) [compound 548464]
% inhibition [1]: 0%

548599 (eT*eG*kG*dG*dT*dT*dG*dG*dA*dG*dG*dA*dG*kT*kG*eG; antisense) [compound 548599]
% inhibition [2]: 19%

548249 (antisense eT*eG*kT*dG*dA*dT*dG*d[5mC]*dG*dA*dT*dT*dT*kT*k[5mC]*e[5mC]) [compound 548249]
% inhibition [3]: 22%

548262 (antisense e[5mC]*e[5mC]*kT*dA*dT*d[5mC]*d[5mC]*dG*dT*dG*dT*dT*d[5mC]*kA*kG*e[5mC]) [compound 548262]
% inhibition [3]: 73%

548499 (antisense eA*eT*kA*d[5mC]*d[5mC]*d[5mC]*dG*dG*dA*dG*dT*d[5mC]*dA*kG*kG*eA) [compound 548499]
% inhibition [1]: 56%

547779 (antisense eA*eT*kT*dG*d[5mC]*dT*dT*d[5mC]*dT*dT*dG*dG*dA*kG*kG*eT) [compound 547779]
% inhibition [4]: 41%

548420 (antisense eT*e[5mC]*k[5mC]*dT*dA*dT*dA*dT*d[5mC]*dA*d[5mC]*dT*dG*kT*k[5mC]*e[5mC]) [compound 548420]
% inhibition [5]: 58%

547789 (antisense eG*eA*kA*dA*dT*dA*dA*dG*dT*dT*dG*d[5mC]*dT*kT*kG*e[5mC]) [compound 547789]
% inhibition [4]: 20%

548568 (eA*eT*kT*dG*dA*d[5mC]*dA*dA*d[5mC]*d[5mC]*dA*dT*d[5mC]*k[5mC]*kT*eA; antisense) [compound 548568]
% inhibition [2]: 27%

547984 (antisense e[5mC]*eG*kA*dA*dT*d[5mC]*dA*dT*d[5mC]*dT*dT*dT*dG*kT*kG*e[5mC]) [compound 547984]
% inhibition [6]: 55%

547977 (antisense e[5mC]*e[5mC]*kT*d[5mC]*d[5mC]*dA*dA*dA*dG*dT*d[5mC]*dA*dA*k[5mC]*kT*e[5mC]) [compound 547977]
% inhibition [6]: 57%

548661 (antisense eA*e[5mC]*kG*dA*d[5mC]*d[5mC]*d[5mC]*dA*d[5mC]*dT*d[5mC]*d[5mC]*dA*kT*kG*eT) [compound 548661]
% inhibition [7]: 18%

548685 (antisense eT*eA*kG*dT*d[5mC]*d[5mC]*dA*d[5mC]*dT*dA*d[5mC]*dA*d[5mC]*kA*kG*e[5mC]) [compound 548685]
% inhibition [7]: 24%

548484 (e[5mC]*e[5mC]*k[5mC]*d[5mC]*dG*dG*dA*dG*d[5mC]*dA*d[5mC]*d[5mC]*dT*kT*k[5mC]*eA; antisense) [compound 548484]
% inhibition [1]: 41%

548514 (antisense eT*e[5mC]*kG*dA*dG*dG*dA*d[5mC]*dA*dG*d[5mC]*d[5mC]*d[5mC]*k[5mC]*k[5mC]*eA) [compound 548514]
% inhibition [1]: 40%

548122 (antisense e[5mC]*eT*k[5mC]*dT*dG*dG*dA*d[5mC]*dT*dG*d[5mC]*dT*dT*k[5mC]*kT*e[5mC]) [compound 548122]
% inhibition [8]: 55%

547912 (eA*eT*k[5mC]*d[5mC]*dA*d[5mC]*dA*dT*d[5mC]*dT*dG*dA*dG*kA*kA*e[5mC]; antisense) [compound 547912]
% inhibition [9]: 23%
% inhibition [10]: 53%

548594 (e[5mC]*e[5mC]*k[5mC]*dT*dT*d[5mC]*dT*dA*dA*d[5mC]*d[5mC]*dA*dA*kG*kG*eA; antisense) [compound 548594]
% inhibition [2]: 30%

548613 (antisense eT*eG*kG*d[5mC]*dG*dG*dG*dA*dT*d[5mC]*dG*dG*dT*kG*kG*eT) [compound 548613]
% inhibition [7]: 39%

548212 (eA*eG*k[5mC]*d[5mC]*d[5mC]*dA*d[5mC]*d[5mC]*dA*dA*d[5mC]*dA*dA*kT*k[5mC]*eT; antisense) [compound 548212]
% inhibition [11]: 44%

548386 (eA*eG*k[5mC]*d[5mC]*d[5mC]*dT*dG*dT*dT*dT*dG*dG*dT*kT*kT*eT; antisense) [compound 548386]
% inhibition [5]: 0%

548268 (antisense eT*eG*kT*dG*dT*d[5mC]*dT*dA*dG*dG*dG*dA*dG*kT*kT*eG) [compound 548268]
% inhibition [3]: 52%

547992 (antisense e[5mC]*e[5mC]*kT*dT*dA*d[5mC]*dA*dG*dT*d[5mC]*dT*dT*d[5mC]*kT*kG*eG) [compound 547992]
% inhibition [6]: 17%

548525 (antisense eG*eT*k[5mC]*dT*dA*dA*d[5mC]*dT*dG*dG*d[5mC]*d[5mC]*dT*kG*kG*e[5mC]) [compound 548525]
% inhibition [1]: 2%

547846 (antisense eT*e[5mC]*kG*dA*dT*dG*dG*d[5mC]*dA*dA*dG*d[5mC]*dA*k[5mC]*kT*eT) [compound 547846]
% inhibition [9]: 0%
% inhibition [10]: 42%

548230 (eT*eA*k[5mC]*dT*d[5mC]*dA*dT*dT*dG*dT*dT*dG*dT*kG*kT*eG; antisense) [compound 548230]
% inhibition [3]: 10%

548222 (eA*eA*kT*d[5mC]*dA*dT*dG*d[5mC]*d[5mC]*dT*dT*dG*dT*kG*kG*eG; antisense) [compound 548222]
% inhibition [11]: 32%

548146 (eG*eT*k[5mC]*d[5mC]*dT*dT*dA*dG*dG*dA*dT*dG*d[5mC]*kA*kA*eA; antisense) [compound 548146]
% inhibition [8]: 68%

548355 (antisense eG*e[5mC]*kA*dT*d[5mC]*d[5mC]*dT*d[5mC]*d[5mC]*d[5mC]*dT*dA*dG*kT*kT*eG) [compound 548355]
% inhibition [12]: 47%

548257 (antisense eA*eG*kT*dG*d[5mC]*dT*d[5mC]*d[5mC]*d[5mC]*d[5mC]*dA*dT*dG*k[5mC]*kA*eT) [compound 548257]
% inhibition [3]: 2%

548351 (antisense e[5mC]*eT*kG*dG*dA*dA*dA*d[5mC]*dG*dA*dG*dA*d[5mC]*kA*k[5mC]*eA) [compound 548351]
% inhibition [12]: 33%

548366 (antisense eA*eG*k[5mC]*dA*dA*dG*d[5mC]*dT*dA*dA*dG*dT*dG*kA*kG*eT) [compound 548366]
% inhibition [12]: 5%

548023 (eG*e[5mC]*kT*dT*d[5mC]*dA*d[5mC]*d[5mC]*dT*dG*d[5mC]*dA*dG*kG*k[5mC]*eT; antisense) [compound 548023]
% inhibition [13]: 58%

548159 (e[5mC]*eG*k[5mC]*dA*dT*dT*dG*dT*d[5mC]*dA*dG*d[5mC]*d[5mC]*k[5mC]*k[5mC]*eT; antisense) [compound 548159]
% inhibition [11]: 59%

547913 (eG*e[5mC]*kA*dA*d[5mC]*dA*dT*d[5mC]*d[5mC]*dA*d[5mC]*dA*dT*k[5mC]*kT*eG; antisense) [compound 547913]
% inhibition [9]: 71%
% inhibition [10]: 61%

548676 (antisense eG*eT*kG*dA*dA*dT*d[5mC]*dA*dG*dA*dG*d[5mC]*dA*kG*kT*eG) [compound 548676]
% inhibition [7]: 63%

548190 (eT*eA*kT*dT*d[5mC]*d[5mC]*dA*dT*dG*dA*dA*d[5mC]*dA*kT*k[5mC]*e[5mC]; antisense) [compound 548190]
% inhibition [11]: 43%

548029 (eT*eG*kG*dT*dG*dT*d[5mC]*d[5mC]*dT*dA*dT*dG*dA*kG*kT*eG; antisense) [compound 548029]
% inhibition [13]: 12%

548258 (antisense e[5mC]*eA*kA*dG*dT*dG*d[5mC]*dT*d[5mC]*d[5mC]*d[5mC]*d[5mC]*dA*kT*kG*e[5mC]) [compound 548258]
% inhibition [3]: 0%

548298 (eG*eG*kA*d[5mC]*dA*dA*dT*dA*dT*dG*dT*d[5mC]*dT*k[5mC]*k[5mC]*eT; antisense) [compound 548298]
% inhibition [3]: 0%

548277 (antisense eG*eG*kA*dT*dT*dG*dG*dA*d[5mC]*d[5mC]*d[5mC]*dA*dG*kA*k[5mC]*eA) [compound 548277]
% inhibition [3]: 57%

547816 (eG*eA*kA*d[5mC]*dT*dT*dG*d[5mC]*dT*dG*dG*dA*dA*kG*kA*eA; antisense) [compound 547816]
% inhibition [4]: 45%

548477 (eG*e[5mC]*kA*d[5mC]*dG*dA*dG*d[5mC]*dT*dT*dG*d[5mC]*d[5mC]*kT*kG*eT; antisense) [compound 548477]
% inhibition [1]: 26%

548015 (eT*eT*kG*dT*d[5mC]*d[5mC]*d[5mC]*d[5mC]*dA*dG*dT*dG*dT*kT*kA*e[5mC]; antisense) [compound 548015]
% inhibition [13]: 50%

548261 (antisense eT*eT*k[5mC]*dA*dG*dG*dG*dA*dG*dT*dG*dA*dT*kG*kT*e[5mC]) [compound 548261]
% inhibition [3]: 36%

548543 (antisense eG*eA*kT*d[5mC]*d[5mC]*dA*d[5mC]*d[5mC]*d[5mC]*dA*dT*dG*dA*k[5mC]*k[5mC]*eT) [compound 548543]
% inhibition [2]: 32%

548346 (antisense eT*e[5mC]*k[5mC]*d[5mC]*d[5mC]*dA*dA*dT*dA*d[5mC]*dT*dT*dG*k[5mC]*kT*eG) [compound 548346]
% inhibition [12]: 35%

Source: patent US11840686B2, “Modulation of prekallikrein (PKK) expression” (Ionis Pharmaceuticals, Inc., priority 2013, dated 2023)
